In US7786108B2, “Compounds and method for treating dyslipidemia” (Eli Lilly and Company, priority 2004, dated 2010):
Structures can show the parent of a compound that is named as a salt.

The compounds below were run on transgenic mice that express both human CETP and human apolipoprotein A-1 (assay: In vivo assay of plasma lipids: elevation of HDL cholesterol). Details: Mus musculus; single oral dose 30 mg/kg; HDL cholesterol in serum at 8 hr after administration; relative to a control; read-out: % HDL cholesterol increase.
From the text: Additional serum lipids can be analyzed by enzymatic methods.
For `Cc1cc2c(cc1C(F)(F)F)N(Cc1cncc(C(=O)O)c1)CCC[C@@H]2N(Cc1cc(C(F)(F)F)cc(C(F)(F)F)c1)c1nnn(C)n1` [Example 142, (S)-5-{5-[(3,5-Bis-trifluoromethyl-benzyl)-(2-methyl-2H-tetrazol-5-yl)-amino]-7-methyl-8-trifluoromethyl-2,3,4,5-tetrahydro-benzo[b]azepin-1-ylmethyl}-nicotinic acid hydrochloride], the change in vivo at 30 mg/kg was 90%. `Cn1nnc(N(Cc2cc(C(F)(F)F)cc(C(F)(F)F)c2)[C@H]2CCCN(CC3CCCC3)c3cc4c(cc32)COC4)n1` [Example 73, (S)-(3,5-Bis-trifluoromethyl-benzyl)-(5-cyclopentylmethyl-3,5,6,7,8,9-hexahydro-1H-2-oxa-5-aza-cyclohepta[f]inden-9-yl)-(2-methyl-2H-tetrazol-5-yl)-amine] showed a change in vivo at 30 mg/kg of 374%. Work on `Cc1cc2c(cc1C(F)(F)F)N(Cc1ccc(O)c(C(=O)O)c1)CCC[C@@H]2N(Cc1cc(C(F)(F)F)cc(C(F)(F)F)c1)c1nnn(C)n1` [Example 141, (S)-5-{5-[(3,5-Bis-trifluoromethyl-benzyl)-(2-methyl-2H-tetrazol-5-yl)-amino]-7-methyl-8-trifluoromethyl-2,3,4,5-tetrahydro-benzo[b]azepin-1-ylmethyl}-2-hydroxy-benzoic acid] yielded a change in vivo at 30 mg/kg of 74%. Compound `Cc1cc2c(cc1C(F)(F)F)N(CC1CCCC1)CCC[C@@H]2N(Cc1cc(C(F)(F)F)cc(C(F)(F)F)c1)c1nnn(C)n1` [Example 3, (S)-(3,5-bistrifluoromethylbenzyl)-(1-cyclopentylmethyl-7-methyl-8-trifluoromethyl-2,3,4,5-tetrahydro-1H-benzo[b]azepin-5-yl)-(2-methyl-2H-tetrazol-5-yl)amine] has a change in vivo at 30 mg/kg of 71%. With `Cc1cc2c(cc1C(F)(F)F)N(Cc1ccncc1)CCC[C@@H]2N(Cc1cc(Cl)cc(C(F)(F)F)c1)c1nnn(C)n1` [Example 191, (S)-(3-Chloro-5-trifluoromethyl-benzyl)-(7-methyl-1-pyridin-4-ylmethyl-8-trifluoromethyl-2,3,4,5-tetrahydro-1H-benzo[b]azepin-5-yl)-(2-methyl-2H-tetrazol-5-yl)-amine] the change in vivo at 30 mg/kg was 91%. `Cc1cc(N(Cc2cc(C(F)(F)F)cc(C(F)(F)F)c2)[C@H]2CCCN(C[C@H]3CC[C@H](CC(=O)O)CC3)c3cc(C(F)(F)F)c(C)cc32)on1` [Example 94, (4-{5-[(3,5-Bis-trifluoromethyl-benzyl)-(3-methyl-isoxazol-5-yl)-amino]-7-methyl-8-trifluoromethyl-2,3,4,5-tetrahydro-benzo[b]azepin-1-ylmethyl}-cyclohexyl)-acetic acid] was tested, and the change in vivo at 30 mg/kg was 154%. `CC(C)OC(=O)N1CCCC(N(Cc2cc(C(F)(F)F)cc(C(F)(F)F)c2)c2nnn(C)n2)c2cc3c(cc21)CCC3` (racemic) [Example 50, (+/−)-9-[(3,5-Bis-trifluoromethyl-benzyl)-(2-methyl-2H-tetrazol-5-yl)-amino]-2,3,6,7,8,9-hexahydro-1H-5-aza-cyclohepta[f]indene-5-carboxylic acid isopropyl ester] showed a change in vivo at 30 mg/kg of 127%. For `Cc1cc2c(cc1C(F)(F)F)N(Cc1ccc(C#N)cc1)CCC[C@@H]2N(Cc1cc(C(F)(F)F)cc(C(F)(F)F)c1)c1nnn(C)n1` [Example 192, (S)-4-{5-[(3,5-bis-trifluoromethyl-benzyl)-(2-methyl-2H-tetrazol-5-yl)-amino]-7-methyl-8-trifluoromethyl-2,3,4,5-tetrahydro-benzo[b]azepin-1-ylmethyl}-benzonitrile], the change in vivo at 30 mg/kg was 102%. Work on `Cc1cc2c(cc1C(F)(F)F)N(CCC(C)(C)CC(=O)O)CCC[C@@H]2N(Cc1cc(C(F)(F)F)cc(C(F)(F)F)c1)c1nnn(C)n1` [Example 32, (S)-5-{5-[(3,5-Bis-trifluoromethyl-benzyl)-(2-methyl-2H-tetrazol-5-yl)-amino]-7-methyl-8-trifluoromethyl-2,3,4,5-tetrahydro-benzo[b]azepin-1-yl}-3,3-dimethyl-pentanoic acid] yielded a change in vivo at 30 mg/kg of 128%. For `Cc1cc2c(cc1C(F)(F)F)N(C(=O)OC1CCCC1)CCC[C@@H]2N(Cc1cc(C(F)(F)F)cc(C(F)(F)F)c1)c1nnn(C)n1` [Example 20, (S)-5-[(3,5-Bis-trifluoromethyl-benzyl)-(2-methyl-2H-tetrazol-5-yl)-amino]-7-methyl-8-trifluoromethyl-2,3,4,5-tetrahydro-benzo[b]azepine-1-carboxylic acid cyclopentyl ester], the change in vivo at 30 mg/kg was 72%. For `Cc1cc2c(c(C)c1C(F)(F)F)N(Cc1ccc(C(=O)O)cc1)CCC[C@@H]2N(Cc1cc(C(F)(F)F)cc(C(F)(F)F)c1)c1nnn(C)n1` [Example 202, (S)-4-{5-[(3,5-Bis-trifluoromethyl-benzyl)-(2-methyl-2H-tetrazol-5-yl)-amino]-7,9-dimethyl-8-trifluoromethyl-2,3,4,5-tetrahydro-benzo[b]azepin-1-ylmethyl}-benzoic acid], the change in vivo at 30 mg/kg was 206%. `Cc1cc2c(cc1C(F)(F)F)N(Cc1ccncc1)CCC[C@@H]2N(Cc1cc(Cl)cc(Cl)c1)c1nnn(C)n1` [Example 187, (S)-(3,5-Dichloro-benzyl)-(7-methyl-1-pyridin-4-ylmethyl-8-trifluoromethyl-2,3,4,5-tetrahydro-1H-benzo[b]azepin-5-yl)-(2-methyl-2H-tetrazol-5-yl)-amine] was tested, and the change in vivo at 30 mg/kg was 124%. For `Cc1cc2c(c(C)c1C(F)(F)F)N(CC1CC1)CCC[C@@H]2N(Cc1cc(Cl)cc(C(F)(F)F)c1)c1nnn(C)n1` [Example 200, (S)-(3-Chloro-5-trifluoromethyl-benzyl)-(1-cyclopropylmethyl-7,9-dimethyl-8-trifluoromethyl-2,3,4,5-tetrahydro-1H-benzo[b]azepin-5-yl)-(2-methyl-2H-tetrazol-5-yl)-amine], the change in vivo at 30 mg/kg was 153%. Compound `Cc1cc2c(cc1C(F)(F)F)N(C(=O)OC(C)(C)C)CCC[C@@H]2N(Cc1cc(Cl)cc(C(F)(F)F)c1)c1nnn(C)n1` [Example 185, (S)-5-[(3-Chloro-5-trifluoromethyl-benzyl)-(2-methyl-2H-tetrazol-5-yl)-amino]-7-methyl-8-trifluoromethyl-2,3,4,5-tetrahydro-benzo[b]azepine-1-carboxylic acid tert-butyl ester] has a change in vivo at 30 mg/kg of 155%. `Cc1cc2c(cc1C(F)(F)F)N(C(=O)OC(C)(C)C)CCC[C@@H]2N(Cc1cc(C(F)(F)F)cc(C(F)(F)F)c1)c1nnn(C)n1` [Example 17, (S)-5-[(3,5-Bis-trifluoromethyl-benzyl)-(2-methyl-2H-tetrazol-5-yl)-amino]-7-methyl-8-trifluoromethyl-2,3,4,5-tetrahydro-benzo[b]azepine-1-carboxylic acid tert-butyl ester] gave a change in vivo at 30 mg/kg of 73%. With `CCC(OC(=O)N1CCCC(N(Cc2cc(C(F)(F)F)cc(C(F)(F)F)c2)c2nnn(C)n2)c2cc(C)c(C(F)(F)F)cc21)C(C)C` (racemic) [Example 25, (+/−)-5-[(3,5-Bis-trifluoromethyl-benzyl)-(2-methyl-2H-tetrazol-5-yl)-amino]-7-methyl-8-trifluoromethyl-2,3,4,5-tetrahydro-benzo[b]azepine-1-carboxylic acid 1-ethyl-2-methyl-propyl ester] the change in vivo at 30 mg/kg was 142%. In the case of `CCC(CC)OC(=O)N1CCC[C@H](N(Cc2cc(C(F)(F)F)cc(C(F)(F)F)c2)c2nnn(C)n2)c2cc(C)c(C(F)(F)F)cc21` [Example 18, (S)-5-[(3,5-Bis-trifluoromethyl-benzyl)-(2-methyl-2H-tetrazol-5-yl)-amino]-7-methyl-8-trifluoromethyl-2,3,4,5-tetrahydro-benzo[b]azepine-1-carboxylic acid 1-ethyl-propyl ester], the change in vivo at 30 mg/kg is reported as 105%. For `Cc1cc2c(cc1C(F)(F)F)N(CCO)CCC[C@@H]2N(Cc1cc(C(F)(F)F)cc(C(F)(F)F)c1)c1nnn(C)n1` [Example 33, (S)-2-{5-[(3,5-Bis-trifluoromethyl-benzyl)-(2-methyl-2H-tetrazol-5-yl)-amino]-7-methyl-8-trifluoromethyl-2,3,4,5-tetrahydro-benzo[b]azepin-1-yl}-ethanol], the change in vivo at 30 mg/kg was 354%. With `Cn1nnc(N(Cc2cc(C(F)(F)F)cc(C(F)(F)F)c2)[C@H]2CCCN(CC3CCCC3)c3cc4c(cc32)OC(F)(F)O4)n1` [Example 178, (S)-(3,5-Bis-trifluoromethyl-benzyl)-(5-cyclopentylmethyl-2,2-difluoro-6,7,8,9-tetrahydro-5H-1,3-dioxa-5-aza-cyclohepta[f]inden-9-yl)-(2-methyl-2H-tetrazol-5-yl)-amine] the change in vivo at 30 mg/kg was 128%. Work on `Cc1cc2c(cc1C(F)(F)F)N(CC1CC1)CCC[C@@H]2N(Cc1cc(Cl)cc(C(F)(F)F)c1)c1nnn(C)n1` [Example 196, (S)-(3-Chloro-5-trifluoromethyl-benzyl)-(1-cyclopropylmethyl-7-methyl-8-trifluoromethyl-2,3,4,5-tetrahydro-1H-benzo[b]azepin-5-yl)-(2-methyl-2H-tetrazol-5-yl)-amine] yielded a change in vivo at 30 mg/kg of 126%. `Cc1cc2c(cc1C(F)(F)F)N(C1CCC(C(=O)O)CC1)CCC[C@@H]2N(Cc1cc(C(F)(F)F)cc(C(F)(F)F)c1)c1nnn(C)n1` (stereo partly drawn) [Example 175, (S)-4-{5-[(3,5-Bis-trifluoromethyl-benzyl)-(2-methyl-2H-tetrazol-5-yl)-amino]-7-methyl-8-trifluoromethyl-2,3,4,5-tetrahydro-benzo[b]azepin-1-yl}-cyclohexanecarboxylic acid] gave a change in vivo at 30 mg/kg of 100%. Compound `CCN1CCC[C@H](N(Cc2cc(C(F)(F)F)cc(C(F)(F)F)c2)c2nnn(C)n2)c2cc(C)c(C(F)(F)F)cc21` [Example 30, (S)-(3,5-Bis-trifluoromethyl-benzyl)-(1-ethyl-7-methyl-8-trifluoromethyl-2,3,4,5-tetrahydro-1H-benzo[b]azepin-5-yl)-(2-methyl-2H-tetrazol-5-yl)-amine] has a change in vivo at 30 mg/kg of 54%. Compound `Cc1cc2c(c(C)c1C(F)(F)F)N(C[C@H]1CC[C@H](CC(=O)O)CC1)CCC[C@@H]2N(Cc1cc(C(F)(F)F)cc(C(F)(F)F)c1)c1nnn(C)n1` [Example 153, (S)-(4-{5-[(3,5-Bis-trifluoromethyl-benzyl)-(2-methyl-2H-tetrazol-5-yl)-amino]-7,9-dimethyl-8-trifluoromethyl-2,3,4,5-tetrahydro-benzo[b]azepin-1-ylmethyl}-cyclohexyl)-acetic acid] has a change in vivo at 30 mg/kg of 165%.
